Laboratory results reported in PMC10938783, “A novel pan-PI3K inhibitor KTC1101 synergizes with anti-PD-1 therapy by targeting tumor suppression and immune activation” (Molecular Cancer, 2024).

Tested on: B16 cells gene expression
Experiment: RNA-Seq (DEGs, GSEA, heatmaps) of B16 cells
Settings: B16 cells

With `COc1cc(N)cc2c1nc(C(F)F)n2-c1nc(N2CCCOCC2)nc(N2CCOCC2)n1` [KTC1101, 2-(difluoromethyl)-4-methoxy-1-(4-morpholino-6-(1,4-oxazepan-4-yl)-1,3,5-triazin-2-yl)-1H-benzo[d]imidazol-6-amine] the “NES: Fat digestion and absorption” value (GSEA KEGG mmu04975, KTC 0.2μM) was -1.65, the “enrichmentScore: Fat digestion and absorption” value (GSEA KEGG mmu04975, KTC 0.2μM) was -0.5488 and the “NES: Bile secretion” value (GSEA KEGG mmu04976, KTC 0.2μM) was 1.51. The “enrichmentScore: Bile secretion” value (GSEA KEGG mmu04976, KTC 0.2μM) was 0.4976, the “NES: Mineral absorption” value (GSEA KEGG mmu04978, KTC 0.2μM) was -1.388 and the “enrichmentScore: Mineral absorption” value (GSEA KEGG mmu04978, KTC 0.2μM) was -0.4138. For the same compound, the “NES: Cholesterol metabolism” value (GSEA KEGG mmu04979, KTC 0.2μM) was -1.456, the “enrichmentScore: Cholesterol metabolism” value (GSEA KEGG mmu04979, KTC 0.2μM) was -0.4442 and the “NES: Alzheimer disease” value (GSEA KEGG mmu05010, KTC 0.2μM) was -1.608. The “enrichmentScore: Alzheimer disease” value (GSEA KEGG mmu05010, KTC 0.2μM) was -0.3072, the “NES: Parkinson disease” value (GSEA KEGG mmu05012, KTC 0.2μM) was -1.964 and the “enrichmentScore: Parkinson disease” value (GSEA KEGG mmu05012, KTC 0.2μM) was -0.3949. For the same compound, the “NES: Amyotrophic lateral sclerosis” value (GSEA KEGG mmu05014, KTC 0.2μM) was -1.71, the “enrichmentScore: Amyotrophic lateral sclerosis” value (GSEA KEGG mmu05014, KTC 0.2μM) was -0.329 and the “NES: Huntington disease” value (GSEA KEGG mmu05016, KTC 0.2μM) was -1.539. The “enrichmentScore: Huntington disease” value (GSEA KEGG mmu05016, KTC 0.2μM) was -0.3057, the “NES: Prion disease” value (GSEA KEGG mmu05020, KTC 0.2μM) was -1.774 and the “enrichmentScore: Prion disease” value (GSEA KEGG mmu05020, KTC 0.2μM) was -0.3631. The “NES: Pathways of neurodegeneration - multiple diseases” value (GSEA KEGG mmu05022, KTC 0.2μM) was -1.25, the “enrichmentScore: Pathways of neurodegeneration - multiple diseases” value (GSEA KEGG mmu05022, KTC 0.2μM) was -0.2359 and the “NES: Morphine addiction” value (GSEA KEGG mmu05032, KTC 0.2μM) was 2.084. The “enrichmentScore: Morphine addiction” value (GSEA KEGG mmu05032, KTC 0.2μM) was 0.6804, the “NES: Leishmaniasis” value (GSEA KEGG mmu05140, KTC 0.2μM) was 1.636 and the “enrichmentScore: Leishmaniasis” value (GSEA KEGG mmu05140, KTC 0.2μM) was 0.5458. The “NES: Chagas disease” value (GSEA KEGG mmu05142, KTC 0.2μM) was 1.762, the “enrichmentScore: Chagas disease” value (GSEA KEGG mmu05142, KTC 0.2μM) was 0.5294 and the “NES: Amoebiasis” value (GSEA KEGG mmu05146, KTC 0.2μM) was 1.187. For the same compound, the “enrichmentScore: Amoebiasis” value (GSEA KEGG mmu05146, KTC 0.2μM) was 0.3662, the “NES: Hepatitis B” value (GSEA KEGG mmu05161, KTC 0.2μM) was 1.161 and the “enrichmentScore: Hepatitis B” value (GSEA KEGG mmu05161, KTC 0.2μM) was 0.3151. The “NES: Human cytomegalovirus infection” value (GSEA KEGG mmu05163, KTC 0.2μM) was 1.262, the “enrichmentScore: Human cytomegalovirus infection” value (GSEA KEGG mmu05163, KTC 0.2μM) was 0.333 and the “NES: Human T-cell leukemia virus 1 infection” value (GSEA KEGG mmu05166, KTC 0.2μM) was 1.309. For the same compound, the “enrichmentScore: Human T-cell leukemia virus 1 infection” value (GSEA KEGG mmu05166, KTC 0.2μM) was 0.342, the “NES: Kaposi sarcoma-associated herpesvirus infection” value (GSEA KEGG mmu05167, KTC 0.2μM) was 1.355 and the “enrichmentScore: Kaposi sarcoma-associated herpesvirus infection” value (GSEA KEGG mmu05167, KTC 0.2μM) was 0.3649. For the same compound, the “NES: Herpes simplex virus 1 infection” value (GSEA KEGG mmu05168, KTC 0.2μM) was 1.765, the “enrichmentScore: Herpes simplex virus 1 infection” value (GSEA KEGG mmu05168, KTC 0.2μM) was 0.4327 and the “NES: Transcriptional misregulation in cancer” value (GSEA KEGG mmu05202, KTC 0.2μM) was 1.705. The “enrichmentScore: Transcriptional misregulation in cancer” value (GSEA KEGG mmu05202, KTC 0.2μM) was 0.4772, the “NES: Proteoglycans in cancer” value (GSEA KEGG mmu05205, KTC 0.2μM) was 1.25 and the “enrichmentScore: Proteoglycans in cancer” value (GSEA KEGG mmu05205, KTC 0.2μM) was 0.3314. The “NES: Chemical carcinogenesis - reactive oxygen species” value (GSEA KEGG mmu05208, KTC 0.2μM) was -1.582, the “enrichmentScore: Chemical carcinogenesis - reactive oxygen species” value (GSEA KEGG mmu05208, KTC 0.2μM) was -0.3305 and the “NES: Prostate cancer” value (GSEA KEGG mmu05215, KTC 0.2μM) was 1.478. For the same compound, the “enrichmentScore: Prostate cancer” value (GSEA KEGG mmu05215, KTC 0.2μM) was 0.4248, the “NES: Basal cell carcinoma” value (GSEA KEGG mmu05217, KTC 0.2μM) was -1.6573 and the “enrichmentScore: Basal cell carcinoma” value (GSEA KEGG mmu05217, KTC 0.2μM) was -0.5057. The “NES: Acute myeloid leukemia” value (GSEA KEGG mmu05221, KTC 0.2μM) was 1.189, the “enrichmentScore: Acute myeloid leukemia” value (GSEA KEGG mmu05221, KTC 0.2μM) was 0.3668 and the “NES: Small cell lung cancer” value (GSEA KEGG mmu05222, KTC 0.2μM) was 1.1778. For the same compound, the “enrichmentScore: Small cell lung cancer” value (GSEA KEGG mmu05222, KTC 0.2μM) was 0.3365, the “NES: Breast cancer” value (GSEA KEGG mmu05224, KTC 0.2μM) was 1.3909 and the “enrichmentScore: Breast cancer” value (GSEA KEGG mmu05224, KTC 0.2μM) was 0.3926. The “NES: Hepatocellular carcinoma” value (GSEA KEGG mmu05225, KTC 0.2μM) was -1.183, the “enrichmentScore: Hepatocellular carcinoma” value (GSEA KEGG mmu05225, KTC 0.2μM) was -0.2565 and the “NES: Gastric cancer” value (GSEA KEGG mmu05226, KTC 0.2μM) was 1.191. The “enrichmentScore: Gastric cancer” value (GSEA KEGG mmu05226, KTC 0.2μM) was 0.3347, the “NES: Central carbon metabolism in cancer” value (GSEA KEGG mmu05230, KTC 0.2μM) was -1.65 and the “enrichmentScore: Central carbon metabolism in cancer” value (GSEA KEGG mmu05230, KTC 0.2μM) was -0.4278. For the same compound, the “NES: Inflammatory bowel disease” value (GSEA KEGG mmu05321, KTC 0.2μM) was 1.418, the “enrichmentScore: Inflammatory bowel disease” value (GSEA KEGG mmu05321, KTC 0.2μM) was 0.5282 and the “NES: Rheumatoid arthritis” value (GSEA KEGG mmu05323, KTC 0.2μM) was 1.449. The “enrichmentScore: Rheumatoid arthritis” value (GSEA KEGG mmu05323, KTC 0.2μM) was 0.4777, the “NES: Hypertrophic cardiomyopathy” value (GSEA KEGG mmu05410, KTC 0.2μM) was 1.341 and the “enrichmentScore: Hypertrophic cardiomyopathy” value (GSEA KEGG mmu05410, KTC 0.2μM) was 0.4238. The “NES: Dilated cardiomyopathy” value (GSEA KEGG mmu05414, KTC 0.2μM) was 1.501, the “enrichmentScore: Dilated cardiomyopathy” value (GSEA KEGG mmu05414, KTC 0.2μM) was 0.4674 and the “NES: Diabetic cardiomyopathy” value (GSEA KEGG mmu05415, KTC 0.2μM) was -1.29. For the same compound, the “enrichmentScore: Diabetic cardiomyopathy” value (GSEA KEGG mmu05415, KTC 0.2μM) was -0.2769, the “NES: Fluid shear stress and atherosclerosis” value (GSEA KEGG mmu05418, KTC 0.2μM) was -1.4518 and the “enrichmentScore: Fluid shear stress and atherosclerosis” value (GSEA KEGG mmu05418, KTC 0.2μM) was -0.3333. The “NES, mmu00071 Fatty acid degradation” value (KTC1101 0.2μM, GSEA KEGG) was 0.7528, the “NES, mmu00310 Lysine degradation” value (KTC1101 0.2μM, GSEA KEGG) was -0.7398 and the “NES, mmu00380 Tryptophan metabolism” value (KTC1101 0.2μM, GSEA KEGG) was 1.209. For the same compound, the “NES, mmu00500 Starch and sucrose metabolism” value (KTC1101 0.2μM, GSEA KEGG) was -1.196, the “NES, mmu00510 N-Glycan biosynthesis” value (KTC1101 0.2μM, GSEA KEGG) was -0.6482 and the “NES, mmu00513 Various types of N-glycan biosynthesis” value (KTC1101 0.2μM, GSEA KEGG) was 1.019. For the same compound, the “NES, mmu00514 Other types of O-glycan biosynthesis” value (KTC1101 0.2μM, GSEA KEGG) was 1.221, the “NES, mmu00562 Inositol phosphate metabolism” value (KTC1101 0.2μM, GSEA KEGG) was -1.021 and the “NES, mmu00564 Glycerophospholipid metabolism” value (KTC1101 0.2μM, GSEA KEGG) was -0.7177.
